We go through 10 compounds from patent publication US20210355104A1, “ADENOSINE RECEPTOR BINDING COMPOUNDS” (Nikang Therapeuticsm Inc., priority 2018, published 2021).

The structures appear in SMILES notation. Several values for one entry are separate records, joined by “and”; a condition that tells them apart may be missing. Identical values can stand only once.

Experiment [1] deals with T1, Adenosine A2A receptor (Homo sapiens, UniProt P29274). Kind of experiment: Adenosine A2A receptor competitive binding assay (Tag-lite HTRF). The conditions noted are these: Tag-lite adenosine A2A receptor ligand binding, HTRF. A digest of the protocol:
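Compound displacement of a red fluorescent antagonist tracer (added at 60 nM stock) from donor-labelled, pre-transfected human A2A cells was read by HTRF after 2 h at room temperature; compound dilutions contained 0.6% DMSO.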
A general note: Time-resolved FRET reads energy transfer from a long-lived donor to a nearby acceptor.

The target of experiment [2] is T1, Adenosine A2A receptor. The experiment in a line: cAMP assay in 293A cells stably expressing the adenosine A2A receptor (CGS21680 stimulation, HTRF). It is filed as cell-based. On the set-up: expressed in transfected cells; host or cells: 293A cells (Invitrogen, Cat# R705-07) infected with A2A-expressing lentivirus (custom packaged by Biosettia), puromycin selected. The conditions noted are these: 293A-A2AR cells, 0.1% BSA.

Where [3] appears, read: 8 nM CGS, read-out: cAMP (nM) 0.1% BSA, 8 nM CGS.
Where [4] appears, read: 1 uM CGS, read-out: cAMP (nM) 0.1% BSA, 1 uM CGS.

T1 sequence (P29274 whole entry): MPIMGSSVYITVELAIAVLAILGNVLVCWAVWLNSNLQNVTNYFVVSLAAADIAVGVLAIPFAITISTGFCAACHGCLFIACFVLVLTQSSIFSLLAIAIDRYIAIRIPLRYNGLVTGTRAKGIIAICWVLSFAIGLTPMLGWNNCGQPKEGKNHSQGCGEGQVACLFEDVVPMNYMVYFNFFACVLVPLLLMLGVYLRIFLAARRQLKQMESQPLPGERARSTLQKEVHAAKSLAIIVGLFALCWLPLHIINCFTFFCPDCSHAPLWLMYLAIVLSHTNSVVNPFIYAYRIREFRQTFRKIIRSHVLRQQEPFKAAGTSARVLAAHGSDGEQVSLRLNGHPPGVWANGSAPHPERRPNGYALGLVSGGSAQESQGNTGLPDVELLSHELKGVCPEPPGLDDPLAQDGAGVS

As to `CCN(CC(C)O)C(=O)COc1nc(N)nc(-c2ccc(F)cc2)c1-c1cc(C)nc(C(F)F)c1` (centres unmarked) [Example 198, 2-((2-amino-5-(2-(difluoromethyl)-6-methylpyridin-4-yl)-6-(4-fluorophenyl)pyrimidin-4-yl)oxy)-N-ethyl-N-(2-hydroxypropyl)acetamide], the values for the IC50 in experiment [1] and in experiment [2] (setting [3]) were 14.9 nM and 10 nM, respectively.
Take `Cc1cc(-c2c(OCC(CO)N(C)c3ccccn3)nc(N)nc2-c2ccc(F)cc2)cc(C(F)F)n1` (centres unmarked) [Example 199, 3-((2-amino-5-(2-(difluoromethyl)-6-methylpyridin-4-yl)-6-(4-fluorophenyl)pyrimidin-4-yl)oxy)-2-(methyl(pyridin-2-yl)amino)propan-1-ol]: the results for the IC50 in experiment [1] and in experiment [2] (setting [4]) were 7.2 nM and 148 nM, respectively.
`Cc1cc(-c2c(OCC(O)CN(C)c3ccccn3)nc(N)nc2-c2ccc(F)cc2)cc(C(F)F)n1` (centres unmarked) [Example 201, 1-((2-amino-5-(2-(difluoromethyl)-6-methylpyridin-4-yl)-6-(4-fluorophenyl)pyrimidin-4-yl)oxy)-3-(methyl(pyridin-2-yl)amino)propan-2-ol]: the IC50 in experiment [1] is 1 nM and 6.5 nM; in experiment [2] (setting [3]) it was 4.2 nM and 3.5 nM.
For the compound `CCc1nnn(CC)c1COc1nc(N)nc(-c2ccc(F)cc2)c1-c1cc(C)nc(C(F)F)c1` [Example 202, 4-((1,4-diethyl-1H-1,2,3-triazol-5-yl)methoxy)-5-(2-(difluoromethyl)-6-methylpyridin-4-yl)-6-(4-fluorophenyl)pyrimidin-2-amine], the IC50 is 3.5 nM in experiment [1] and 16 nM in experiment [2] (setting [3]).
With `Cc1cc(-c2c(OCc3nc(C#N)cn3C(C)C)nc(N)nc2-c2ccc(F)cc2)cc(C(F)F)n1` [Example 203], the IC50 was determined as 3 nM in experiment [1] and 9.6 nM in experiment [2] (setting [3]).
Regarding `Cc1cc(-c2c(OCc3nccn3C(C)C(=O)O)nc(N)nc2-c2ccc(F)cc2)cc(C(F)F)n1` (centres unmarked) [Example 205, 2-(2-(((2-amino-5-(2-(difluoromethyl)-6-methylpyridin-4-yl)-6-(4-fluorophenyl)pyrimidin-4-yl)oxy)methyl)-1H-imidazol-1-yl)propanoic acid], the results for the IC50 in experiment [1] and in experiment [2] (setting [3]) were 12 nM and 29 nM, respectively.
As for `Cc1cc(-c2c(O)nc(N)nc2-c2ccc(F)cc2)cc(C(F)F)n1` [Example 206, 2-amino-5-(2-(difluoromethyl)-6-methylpyridin-4-yl)-6-(4-fluorophenyl)pyrimidin-4-ol], the IC50 in experiment [1] turned out to be 9.2 nM; in experiment [2] (setting [3]), 10 nM; in experiment [2] (setting [4]), 4660 nM.
Regarding `Cc1cc(-c2c(OCc3nccn3CC(C)C(=O)O)nc(N)nc2-c2ccc(F)cc2)cc(C(F)F)n1` (centres unmarked) [Example 207, 3-(2-(((2-amino-5-(2-(difluoromethyl)-6-methylpyridin-4-yl)-6-(4-fluorophenyl)pyrimidin-4-yl)oxy)methyl)-1H-imidazol-1-yl)-2-methylpropanoic acid], the IC50 came to 28 nM in experiment [1] and 29 nM in experiment [2] (setting [3]).
`Cc1cc(-c2c(OCc3cn(C(C)C)nn3)nc(N)nc2-c2ccc(F)cc2)cc(C(F)F)n1` [Example 208, 5-(2-(difluoromethyl)-6-methylpyridin-4-yl)-4-(4-fluorophenyl)-6-((1-isopropyl-1H-1,2,3-triazol-4-yl)methoxy)pyrimidin-2-amine]: the IC50 in experiment [1] is 3.4 nM; in experiment [2] (setting [3]) it was 1.4 nM and 1 nM; in experiment [2] (setting [4]), 394 nM.
On to `Cc1cc(-c2c(OCc3nccn3C3CC(O)C3)nc(N)nc2-c2ccc(F)cc2)cc(C(F)F)n1` (centres unmarked) [Example 210, 3-(2-(((2-amino-5-(2-(difluoromethyl)-6-methylpyridin-4-yl)-6-(4-fluorophenyl)pyrimidin-4-yl)oxy)methyl)-1H-imidazol-1-yl)cyclobutan-1-ol], for which the IC50 in experiment [1] was 3.4 nM and 5.4 nM; in experiment [2] (setting [3]), 3.7 nM and 5.4 nM; in experiment [2] (setting [4]), 2250 nM.
